How the values were obtained:
Format in all cases: functional
Rattus norvegicus [1] = assay: Percent reduction in swelling of the left hind paw in rat when 100 mg/kg of dose was injected perorally which was determined in adjuvant arthritis test; settings: route oral
Rattus norvegicus [2] = assay: Percent reduction in swelling of the left hind paw in rat when 10 mg/kg of dose was injected perorally which was determined in adjuvant arthritis test; settings: route oral
Rattus norvegicus [3] = assay: Percent reduction in swelling of the left hind paw in rat determined in adjuvant arthritis test, 50 mg/kg dose perorally; settings: route oral
Rattus norvegicus [4] = species on record: Rattus norvegicus; assay: Activity relative to fenclofenac determined in adjuvant arthritis test
Rattus norvegicus [5] = assay: Percent reduction in swelling of the left hind paw in rat determined in adjuvant arthritis test, 25 mg/kg dose was perorally; settings: route oral
Rattus norvegicus [6] = assay: Minimum ulcerogenic dose was evaluated 24 hours after peroral administration; value may range from 100-200

Nc1cc(Cl)ccc1Oc1ccccc1CC(=O)O
Reduction (Rattus norvegicus [1]): 4%

Cc1cccc([N+](=O)[O-])c1Oc1ccccc1CC(=O)O
Reduction (Rattus norvegicus [2]): 26%

CN1CCc2ccccc2Oc2c(Cl)cccc21
Reduction (Rattus norvegicus [3]): 31% | Relative potency (Rattus norvegicus [4]): 1.4

O=CN1CCc2ccccc2Oc2c(Cl)cccc21
Reduction (Rattus norvegicus [1]): 33%

CCCN1CCc2ccccc2Oc2c(Cl)cc(Cl)cc21
Reduction (Rattus norvegicus [3]): 39% | Relative potency (Rattus norvegicus [4]): 0.6

C[N+]1([O-])CCc2ccccc2Oc2c(Cl)cc(Cl)cc21 (stereo unspecified)
Reduction (Rattus norvegicus [3]): 42% | Relative potency (Rattus norvegicus [4]): 2.2

c1ccc2c(c1)CCNc1ccccc1O2
Reduction (Rattus norvegicus [3]): 6%

Cc1ccc2c(c1)CCNc1cccc(Cl)c1O2
Reduction (Rattus norvegicus [3]): 22%

COc1cc(N)c(Oc2ccccc2CC(=O)O)c(Cl)c1
Reduction (Rattus norvegicus [5]): 24%

CCC[N+]1([O-])CCc2ccccc2Oc2c(Cl)cc(Cl)cc21 (stereo unspecified)
Reduction (Rattus norvegicus [3]): 36%

Nc1c(Cl)cc(Cl)cc1Oc1ccccc1CC(=O)O
Reduction (Rattus norvegicus [2]): 37% | Relative potency (Rattus norvegicus [4]): 6.6

O=C(O)Cc1cccc(Cl)c1Oc1c(Cl)cccc1[N+](=O)[O-]
Reduction (Rattus norvegicus [5]): 1%

CCCC(=O)N1CCc2ccccc2Oc2c(Cl)cc(Cl)cc21
Reduction (Rattus norvegicus [1]): 8%

NNC(=O)N1CCc2ccccc2Oc2c(Cl)cc(Cl)cc21
Reduction (Rattus norvegicus [5]): 32% | Relative potency (Rattus norvegicus [4]): 0.6

Cc1cc(N)c(Oc2ccccc2CC(=O)O)c(Cl)c1
Reduction (Rattus norvegicus [5]): 20%

Nc1ccc(Cl)cc1Oc1ccccc1CC(=O)O
Reduction (Rattus norvegicus [5]): 12%

Cc1ccc2c(c1)CCNc1cc(Cl)c(Cl)cc1O2
Reduction (Rattus norvegicus [3]): 8%

Clc1ccc(CN2CCc3ccccc3Oc3c(Cl)cc(Cl)cc32)cc1
Reduction (Rattus norvegicus [3]): 10%

Cc1cccc(CC(=O)O)c1Oc1c(Cl)cccc1[N+](=O)[O-]
Reduction (Rattus norvegicus [5]): 0%

CCc1cc(Cl)c2c(c1)NCCc1cc(C)ccc1O2
Reduction (Rattus norvegicus [1]): 13%

O=C(Cc1ccccc1Oc1c(Cl)cccc1[N+](=O)[O-])NO
Reduction (Rattus norvegicus [3]): 36%

COC(=O)Cc1ccccc1Oc1c(Cl)cc(Cl)cc1NC(C)=O
Reduction (Rattus norvegicus [5]): 18%

Clc1ccc2c(c1)CCNc1cc(Cl)cc(Cl)c1O2
Reduction (Rattus norvegicus [3]): 25% | Relative potency (Rattus norvegicus [4]): 0.8

Nc1cccc(Cl)c1Oc1cc(Cl)ccc1CC(=O)O
Reduction (Rattus norvegicus [5]): 1%

CCc1cc(N)c(Oc2ccc(C)cc2CC(=O)O)c(F)c1
Reduction (Rattus norvegicus [5]): 1% | MUD (Rattus norvegicus [6]): 100 mg/kg

O=C(O)Cc1ccccc1Oc1c([N+](=O)[O-])cc(Cl)c(Cl)c1Cl
Reduction (Rattus norvegicus [2]): 17% | Relative potency (Rattus norvegicus [4]): 0.6

O=C(Cl)N1CCc2ccccc2Oc2c(Cl)cc(Cl)cc21
Reduction (Rattus norvegicus [3]): 7%

CCc1cc(N)c(Oc2ccc(C)cc2CC(=O)O)c(Cl)c1
Reduction (Rattus norvegicus [5]): 34% | Relative potency (Rattus norvegicus [4]): 1

Cc1ccc2c(c1)NCCc1ccccc1O2
Reduction (Rattus norvegicus [3]): 0%

COc1cc(Cl)c2c(c1)NCCc1ccccc1O2
Reduction (Rattus norvegicus [3]): 18%

Fc1cccc2c1Oc1ccccc1CCN2
Reduction (Rattus norvegicus [3]): 0%

CN1CCc2cc(Cl)ccc2Oc2c(Cl)cccc21
Reduction (Rattus norvegicus [3]): 13%

Clc1ccc2c(c1)NCCc1ccccc1O2
Reduction (Rattus norvegicus [3]): 0%

Cc1ccc2c(c1)CCN(C)c1cccc(Cl)c1O2
Reduction (Rattus norvegicus [3]): 15%

CN1CCc2ccccc2Oc2c(Cl)cc(Cl)cc21
Reduction (Rattus norvegicus [3]): 35% | Relative potency (Rattus norvegicus [4]): 2.4

Clc1cccc2c1Oc1ccccc1CCN2
Reduction (Rattus norvegicus [1]): 33% | Relative potency (Rattus norvegicus [4]): 0.2

Clc1ccc2c(c1)Oc1ccccc1CCN2
Reduction (Rattus norvegicus [3]): 0%

CCc1cc(Cl)cc(N)c1Oc1ccccc1CC(=O)O
Reduction (Rattus norvegicus [2]): 25% | Relative potency (Rattus norvegicus [4]): 2.8

CNc1cccc(Cl)c1Oc1ccccc1CCO
Reduction (Rattus norvegicus [2]): 36% | MUD (Rattus norvegicus [6]): 100 mg/kg | Relative potency (Rattus norvegicus [4]): 5

O=C(O)Cc1ccccc1Oc1c([N+](=O)[O-])ccc(Cl)c1Cl
Reduction (Rattus norvegicus [5]): 25%

Nc1cccc(Cl)c1Oc1ccccc1CC(=O)OC1OC(=O)c2ccccc21 (stereo unspecified)
Reduction (Rattus norvegicus [1]): 36%

COC(=O)Cc1ccccc1Oc1c(N)cccc1Cl
Reduction (Rattus norvegicus [5]): 35%

Clc1ccc2c(c1)Oc1c(Cl)cccc1NCC2
Reduction (Rattus norvegicus [3]): 10%

Cc1cc(N)c(Oc2ccc(Cl)cc2CC(=O)O)c(Cl)c1
Reduction (Rattus norvegicus [5]): 32% | Relative potency (Rattus norvegicus [4]): 1.4

COC(=O)Cc1ccccc1Oc1c(Cl)cc(Cl)cc1N(C)C
Reduction (Rattus norvegicus [2]): 33% | Relative potency (Rattus norvegicus [4]): 2.7

O=C(O)Cc1ccccc1Oc1c(Cl)cc(Cl)cc1[N+](=O)[O-]
Reduction (Rattus norvegicus [5]): 36%

CCC(C)c1cc(Cl)c2c(c1)NCCc1cc(C)ccc1O2 (stereo unspecified)
Reduction (Rattus norvegicus [3]): 14%

Cc1cc(Cl)cc2c1Oc1ccccc1CCN2
Reduction (Rattus norvegicus [3]): 32% | Relative potency (Rattus norvegicus [4]): 0.9

Cc1c(Cl)ccc(N)c1Oc1ccccc1CC(=O)O
Reduction (Rattus norvegicus [5]): 34% | MUD (Rattus norvegicus [6]): 100 mg/kg | Relative potency (Rattus norvegicus [4]): 4.1

Cc1ccc2c(c1)CCNc1cc(Cl)cc(Cl)c1O2
Reduction (Rattus norvegicus [3]): 17%

Nc1cccc(F)c1Oc1ccccc1CC(=O)O
Reduction (Rattus norvegicus [5]): 27%

C[N+]1([O-])CCc2ccccc2Oc2c(Cl)cccc21 (stereo unspecified)
Reduction (Rattus norvegicus [5]): 23% | Relative potency (Rattus norvegicus [4]): 0.7

CCC(C)c1cc(N)c(Oc2ccc(C)cc2CC(=O)O)c(Cl)c1 (stereo unspecified)
Reduction (Rattus norvegicus [2]): 10%

O=C(c1ccc(Cl)cc1)N1CCc2ccccc2Oc2c(Cl)cc(Cl)cc21
Reduction (Rattus norvegicus [3]): 0%

CCOC(=O)N1CCc2ccccc2Oc2c(Cl)cc(Cl)cc21
Reduction (Rattus norvegicus [2]): 21% | Relative potency (Rattus norvegicus [4]): 0.5

Cc1cc(N)c(Oc2ccc(C)cc2CC(=O)O)c(Cl)c1
Reduction (Rattus norvegicus [5]): 3%

C/C=C/CN1CCc2ccccc2Oc2c(Cl)cc(Cl)cc21
Reduction (Rattus norvegicus [3]): 21%

O=C(O)Cc1ccccc1Oc1c(Cl)cc(Cl)c(Cl)c1[N+](=O)[O-]
Reduction (Rattus norvegicus [2]): 30%

Clc1ccc2c(c1)CCNc1cccc(Cl)c1O2
Reduction (Rattus norvegicus [3]): 16%

CCN(CC)C(=O)Cc1ccccc1Oc1c(N)cccc1Cl
Reduction (Rattus norvegicus [3]): 6%

Nc1cc(Cl)c(Cl)c(Cl)c1Oc1ccccc1CC(=O)O
Reduction (Rattus norvegicus [2]): 33% | Relative potency (Rattus norvegicus [4]): 8.2

Cc1cc(Cl)cc([N+](=O)[O-])c1Oc1ccccc1CC(=O)O
Reduction (Rattus norvegicus [5]): 34% | Relative potency (Rattus norvegicus [4]): 3.3

Oc1ccc2c(c1)CCNc1cc(Cl)cc(Cl)c1O2
Reduction (Rattus norvegicus [2]): 2%

CC(=O)NNC(=O)N1CCc2ccccc2Oc2c(Cl)cc(Cl)cc21
Reduction (Rattus norvegicus [1]): 18%

Nc1ccc(Cl)c(Cl)c1Oc1ccccc1CC(=O)O
Reduction (Rattus norvegicus [5]): 33%

C=CCN1CCc2ccccc2Oc2c(Cl)cc(Cl)cc21
Reduction (Rattus norvegicus [3]): 18%

Cc1ccc(Oc2cc(Cl)c(Cl)cc2N)c(CC(=O)O)c1
Reduction (Rattus norvegicus [5]): 10%

Clc1cc(Cl)c2c(c1)N(Cc1ccccc1)CCc1ccccc1O2
Reduction (Rattus norvegicus [2]): 2%

COC(=O)Cc1ccccc1Oc1c(Cl)cccc1[N+](=O)[O-]
Reduction (Rattus norvegicus [5]): 31%

Cc1cc(Cl)c2c(c1)NCCc1cc(Cl)ccc1O2
Reduction (Rattus norvegicus [1]): 21% | Relative potency (Rattus norvegicus [4]): 0.5

Nc1cccc(N)c1Oc1ccccc1CC(=O)O
Reduction (Rattus norvegicus [5]): 5%

Cc1c(Cl)c(C)c2c(c1Cl)Oc1ccccc1CCN2
Reduction (Rattus norvegicus [3]): 6%

O=C(O)Cc1ccccc1Oc1ccccc1[N+](=O)[O-]
Reduction (Rattus norvegicus [3]): 1%

O=C(O)Cc1ccccc1Oc1ccc(C(F)(F)F)cc1[N+](=O)[O-]
Reduction (Rattus norvegicus [1]): 29%

O=C(O)Cc1ccccc1Oc1cc(Cl)cc(Cl)c1[N+](=O)[O-]
Reduction (Rattus norvegicus [2]): 34% | Relative potency (Rattus norvegicus [4]): 2.9

CC(C)(C)OC(=O)Cc1ccccc1Oc1c(Cl)cccc1[N+](=O)[O-]
Reduction (Rattus norvegicus [3]): 21%

NC(=O)Cc1ccccc1Oc1c(N)cccc1Cl
Reduction (Rattus norvegicus [3]): 14%

CNC(=O)N1CCc2ccccc2Oc2c(Cl)cc(Cl)cc21
Reduction (Rattus norvegicus [2]): 4%

Clc1ccc2c(c1)CCNc1c(Cl)ccc(Cl)c1O2
Reduction (Rattus norvegicus [3]): 14%

CNc1cc(Cl)cc(C)c1Oc1ccccc1CC(=O)O
Reduction (Rattus norvegicus [2]): 28% | Relative potency (Rattus norvegicus [4]): 2.8

Reference: ChEMBL document CHEMBL1122891, “Substituted 5H-dibenz[b,g]-1,4-oxazocines and related amino acids with antiinflammatory activity” (1985)
